Laboratory results published in patent US20250312469A1 (CANGET BIOTEKPHARMA, priority 2024, published 2025).
Marks after values point to notes of the source that are not given here.

Assays:
[1] = Rat toxicology/MTD, non-clinically compatible FL118 HPMC suspension (Covance); details: for % BW Change (Day 4) / BW Change (Day 4) / Mean body weight Day 1 / Mean body weight Day 4: 3.3 mg/kg/dose
From the text: Twenty male and 20 female Hsd: Sprague Dawley®SDR rats were received from Envigo RMS, Inc. (Indianapolis, Indiana). Animals were acclimated to the test facility for 7 days prior to initiation.
Prior to group assignment, animals were excluded from the selection pool/sex to produce minimal variation. Animals were assigned to the study using a computerized procedure designed to achieve body weight balance with respect to group assignment with the following experimental design.
Doses were based on the most recently recorded scheduled body weight. Animals were checked twice daily (a.m. and p.m.) for mortality, abnormalities, and signs of pain or distress. Cage-side observations were conducted for each animal once daily during the dosing phase, except on days when detailed observations were conducted. Abnormal findings were recorded. Detailed observations were conducted for each animal once during the pre-dose phase, and on Days 1, 4 and 8 (prior to dosing, as applicable) of the dosing phase. Detailed observations were also collected for each animal on days of scheduled sacrifice (all surviving animals). On each day of dosing, cage-side observations were conducted for each animal approximately 1, 4, and 24 hours postdose. Postdose observations were based on the time dosing was completed for each group/sex. Body weights were recorded once during the pre-dose phase, and on Days 1, 4, and 8 (prior to dosing, as applicable) of the dosing phase. The amount of food consumed by each cage of was recorded Days 1 to 4, Days 4 to 8, and Days 8 to 9. Blood samples for hematology, coagulation, and clinical chemistry were collected from fasted toxicity animals via a jugular vein. Blood samples were collected on the day of scheduled sacrifice. […] The anticoagulants were sodium citrate for coagulation tests and potassium EDTA for hematology tests. Samples for clinical chemistry were collected without anticoagulant.
On Day 10 of the dosing phase, all surviving animals, having been fasted overnight, were anesthetized via isoflurane inhalation, exsanguinated, and necropsied. Terminal body weights were recorded for animals sacrificed at a scheduled interval. A macroscopic examination of the external features of the carcass; external body orifices; abdominal, thoracic, and cranial cavities; organs; and tissues was performed. Organ weights were recorded at the scheduled sacrifice. Paired organs were weighed together. Bone marrow smears (two slides) were prepared from the femur of each animal.
Various models of calculators, computers, and computer programs were used to analyze data in this study. Values in some tables (e.g., means, standard deviations, or individual values) may differ slightly from those in other tables, from individually calculated data, or from statistical analysis data, because different models round off or truncate numbers differently. However, neither the integrity nor the interpretation of the data was affected by these differences.
Data for each sex were analyzed separately; only data collected on or after the first day of dosing were analyzed statistically. Analysis of variance (ANOVA) and pairwise comparisons were used to analyze absolute body weight, Body weight change and continuous clinical pathology values. Levene's test was done to test for equality of variances between groups.

P-gp = experiment: in vitro; details: human
Method: Cell monolayers were grown to confluence on collagen-coated, microporous, polycarbonate membranes in 12-well Costar Transwell R plates. […] The permeability assay buffer was Hanks' balanced salt solution (HBSS) containing 10 mM HEPES and 15 mM glucose at a pH of 7.4. The buffer in the receiver chamber also contained 1% bovine serum albumin. […] Cells were first pre-incubated for 30 minutes with HBSS containing+/−1 μM valspodar. Cell monolayers were dosed on the apical side (A-to-B) or basolateral side (B-to-A) and incubated at 37° C. with 5% CO2 in a humidified incubator. Samples were taken from the donor and receiver chambers at 120 minutes. Each determination was performed in duplicate. The flux of co-dosed lucifer yellow was also measured for each monolayer to ensure no damage was inflicted to the cell monolayers during the flux period. All samples were assayed by LC-MS/MS using electrospray ionization. […] The apparent permeability (Papp) and percent recovery were calculated as follows:
Where, dCr/dt is the slope of the cumulative concentration in the receiver compartment versus time in μM s^−1;Vr is the volume of the receiver compartment in. cm^3; Vd is the volume of the donor compartment in cm^3; A is the area of the insert (1.13 cm^2 for 12-well Transwell); CA is the average of the nominal dosing concentration and the measured 120 minute donor concentration in μM; CN is the nominal concentration of the dosing solution in μM; Cr^Final is the cumulative receiver concentration in μM at the end of the incubation period; and Cd^Final is the concentration of the donor in μM at the end of the incubation period.
Efflux ratio (ER) is defined as Papp (B-to-A)/Papp (A-to-B)

USP2a [2] = target: T1, USP2a (Homo sapiens, UniProt O75604); experiment: 3H-FL118 binding, Nanosep 3K centrifugal device; design: host or cells: HEK293T
T1 sequence (O75604 1-605): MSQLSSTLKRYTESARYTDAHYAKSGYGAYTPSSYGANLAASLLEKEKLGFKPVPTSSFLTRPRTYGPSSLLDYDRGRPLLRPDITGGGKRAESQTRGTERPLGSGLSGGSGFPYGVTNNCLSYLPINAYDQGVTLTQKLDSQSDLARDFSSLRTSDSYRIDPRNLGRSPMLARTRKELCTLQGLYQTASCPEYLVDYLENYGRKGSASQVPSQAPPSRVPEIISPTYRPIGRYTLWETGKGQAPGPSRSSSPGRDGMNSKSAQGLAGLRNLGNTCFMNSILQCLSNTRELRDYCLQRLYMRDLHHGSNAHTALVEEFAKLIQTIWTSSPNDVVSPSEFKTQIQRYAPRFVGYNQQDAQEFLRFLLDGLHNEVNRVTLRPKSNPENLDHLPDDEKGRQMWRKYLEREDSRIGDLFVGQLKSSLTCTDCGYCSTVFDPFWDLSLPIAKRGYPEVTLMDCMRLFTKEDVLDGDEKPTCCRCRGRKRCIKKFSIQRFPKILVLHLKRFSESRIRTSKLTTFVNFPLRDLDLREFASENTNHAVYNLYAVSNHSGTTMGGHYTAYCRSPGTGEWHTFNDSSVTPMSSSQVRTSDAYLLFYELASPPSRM
Method: (§1) Then, 5-10 μg of the FLAGR M Purification Kit (Signa)-purified Flag-USP2a and Flag-UbE2T proteins in a volume of 20-50 μL, respectively, was transferred into the sample reservoir of a 1.5 mL Nanosep 3K Centrifugal Device. In parallel, a negative control Nanosep 3K Centrifugal Devices containing 10 μg bovine serum albumin (BSA) in 50 μL volume was also set up. Then, the 3 prepared Nanosep 3K Devices were centrifuged at 10,000 rpm for 10-15 min to eliminate the solution and retain the proteins in the sample reservoir. […] Lastly, all three of the sample reservoir devices were transferred into a scintillation vial containing enough scintillation solution to cover the entire sample reservoir devices for tritium (3H) counting on the LS 6500 Scintillation System (Backman Couler™).

UbE2T = target: T2, UbE2T (Homo sapiens, UniProt Q9NPD8); experiment: 3H-FL118 binding, Nanosep 3K centrifugal device; design: host or cells: HEK293T; details: hot FL118 solution 10 μM
T2 sequence (Q9NPD8 1-197): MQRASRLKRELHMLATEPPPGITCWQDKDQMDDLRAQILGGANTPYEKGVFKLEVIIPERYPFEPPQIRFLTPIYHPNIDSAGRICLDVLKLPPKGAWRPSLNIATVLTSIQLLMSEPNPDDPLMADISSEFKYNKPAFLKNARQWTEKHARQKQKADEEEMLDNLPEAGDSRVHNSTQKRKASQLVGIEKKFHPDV
Method: as §1

USP2a [3] = target: T1, USP2a; experiment: USP2a deubiquitinase in vitro reconstitution assay; details: 50 nM FL118; polyUb MdmX
Method: Flag-tagged MdmX (0.1 μM) was mixed with 0.1 μM Mdm2 for 60 min at 30° C. in the presence of UbE1, UbE2D3, ubiquitin, and ATP in a buffer. […] Reactions were then immunoblotted with Flag antibody. Signals were detected with enhanced chemiluminescence (ECL). […] Each bar in FIG. 28D is the mean±SD from 3 independent analyses. […] Each bar is the mean±SD from 3 independent analyses; the t-test was used for P-values: * P≤0.5; ** P≤0.01; *** P≤0.001.

USP2a [4] = target: T1, USP2a; experiment: Cell-based polyUb/MdmX and USP2a mRNA/protein analysis in PCa cells; design: purchased Invitrogen ProtoArray Human Protein Microarray v5.0
Method: Each bar is the mean±SD from 3 independent analyses; the t-test was used for P-values: * P≤0.5; ** P≤0.01; *** P≤0.001.
Twenty to fifty μg total protein from each sample (cell lysis or tumor tissue lysis) were heated at 95° C. for 5 minutes after mixing with equal volumes of 2× SDS loading buffer. […] Next, the membrane was incubated with different primary antibodies in TBS-T containing 5% BSA overnight at 4° C. in the range of dilutions from 1:500 to 1:2000 based on the antibody dilution recommended by antibody firms. […] Proteins of interest were detected using Western Lightning ECL-Plus (Perkin Elmer, Waltham, MA) and visualized by various times (3-120 seconds) of exposure. Actin, tubulin and/or GAPDH were detected as the internal control to normalize total protein loading for each sample.
Pertinent to this study, total RNAs were extracted from cancer cells using TRI REAGENT RT (Molecular Research Center), and 5 μg per sample was converted to cDNA with anchored oligo (dT) primers using RevertAid First Strand cDNA Synthesis Kit (Thermo Fisher Scientific, Catalog No. K1622) following the manufacturer's instructions. […] The data were analyzed using the Applied Biosystems 7300 Real Time PCR System and normalized to GAPDH.

Q: With `CCC1(O)C(=O)OCc2c1cc1n(c2=O)Cc2cc3cc4c(cc3nc2-1)OCO4` (stereo not shown) [FL118] as the compound, how does the “% BW Change (Day 4)” value ([1]; Female) read?
A: The value was −14%.

Q: What about the “BW Change (Day 4)” value ([1]; Female) of the same compound?
A: Its value is −26* g.

Q: What about the “Mean body weight Day 1” value ([1]; Female) of the same compound?
A: The value was 192 g.

Q: What about the “Mean body weight Day 4” value ([1]; Female) of the same compound?
A: Its value is 168* g.

Q: And the “% BW Change (Day 4)” value ([1]; Male)?
A: Its value is −12%.

Q: And the “BW Change (Day 4)” value ([1]; Male)?
A: Its value is −25* g.

Q: And the “Mean body weight Day 1” value ([1]; Male)?
A: The value was 207 g.

Q: And the “Mean body weight Day 4” value ([1]; Male)?
A: Its value is 183* g.

Q: And the “highest non-severely toxic dose (HNSTD)” value ([1]; oral, day 1 and day 8)?
A: The value was 1.65 mg/kg/dose.

Q: And the Papp A→B at 120 min, 1 μM (P-gp; Caco-2, pH 7.4, Papp AVG, Caco-2, A-to-B, without valspodar)?
A: Its Papp A→B at 120 min, 1 μM is 6.97 ×10⁻⁶ cm/s.

Q: What about the Papp B→A at 120 min, 1 μM (P-gp; Caco-2, pH 7.4, Papp AVG, Caco-2, B-to-A, without valspodar) of the same compound?
A: Its Papp B→A at 120 min, 1 μM is 8.1 ×10⁻⁶ cm/s.

Q: And the Papp A→B at 120 min, 1 μM (P-gp; Caco-2, pH 7.4, Papp R1, Caco-2, A-to-B, without valspodar)?
A: Its Papp A→B at 120 min, 1 μM is 7.27 ×10⁻⁶ cm/s.

Q: And the Papp B→A at 120 min, 1 μM (P-gp; Caco-2, pH 7.4, Papp R1, Caco-2, B-to-A, without valspodar)?
A: Its Papp B→A at 120 min, 1 μM is 7.35 ×10⁻⁶ cm/s.

Q: And the Papp A→B at 120 min, 1 μM (P-gp; Caco-2, pH 7.4, Papp R2, Caco-2, A-to-B, without valspodar)?
A: The Papp A→B at 120 min, 1 μM was 6.67 ×10⁻⁶ cm/s.

Q: And the Papp B→A at 120 min, 1 μM (P-gp; Caco-2, pH 7.4, Papp R2, Caco-2, B-to-A, without valspodar)?
A: Its Papp B→A at 120 min, 1 μM is 8.86 ×10⁻⁶ cm/s.

Q: And the recovery at 120 min, 1 µM (P-gp; Caco-2, pH 7.4, Recovery (%), Caco-2, A-to-B, without valspodar)?
A: Its recovery at 120 min, 1 µM is 43%.

Q: And the recovery at 120 min, 1 µM (P-gp; Caco-2, pH 7.4, Recovery (%), Caco-2, B-to-A, without valspodar)?
A: Its recovery at 120 min, 1 µM is 48%.

Q: What about the recovery at 120 min, 1 µM (P-gp; Caco-2, pH 7.4, with valspodar 1 µM, Recovery (%), Caco-2, A-to-B, + 1 μM Valspodar) of the same compound?
A: Its recovery at 120 min, 1 µM is 46%.

Q: What about the recovery at 120 min, 1 µM (P-gp; Caco-2, pH 7.4, with valspodar 1 µM, Recovery (%), Caco-2, B-to-A, + 1 μM Valspodar) of the same compound?
A: The recovery at 120 min, 1 µM was 48%.

Q: And the “binding of 3H-FL118 to USP2a and UbE2T versus BSA” value (USP2a [2]; 3H counts per min)?
A: Its value is 10-20 fold.

Q: What about the “3H CPM counts in retained parts” value (USP2a [2]; hot FL118 solution 10 μM) of the same compound?
A: The value was 97,436 ± 2960 CPM.

Q: What about the “3H CPM counts in retained parts” value (UbE2T) of the same compound?
A: The value was 52,382 ± 1930 CPM.

Q: And the USP2a deubiquitinase activity (USP2a [3])?
A: Its USP2a deubiquitinase activity is “inhibited USP2a deubiquitinase activity”.

Q: What about the “USP2a mRNA and protein level” value (USP2a [4]) of the same compound?
A: The value was “USP2a increases”.

Q: And the “polyUb-mediated MdmX degradation in cells” value (USP2a [4])?
A: The value was “promotes polyUb-mediated MdmX degradation”.
